Test results reported in patent US8242152B2, “Use of 4-[(4-thiazolyl)phenoxy]alkoxy-benzamidine derivatives for the prophylaxis and treatment of osteoporosis” (Dong Wha Pharmaceutical Co., Ltd., priority 2001, dated 2012).

Columns and labels:
[1] = test system: osteoclast fusion; assay: Fusion assay of prefusion osteoclasts (Example 2); format: cell-based, mice; conditions: 24 hrs; for inhibition at 0.08 µM / inhibition at 0.4 µM / inhibition at 2 µM / inhibition at 10 µM: read-out: Inhibitory action (%)
Text: This assay is designed to evaluate the influences of each test substance in terms of osteoclast fusion during the differentiation process in which immature prefusion osteoclasts (pOC; osteoclast structure with one more nuclei) were transformed into mature multinucleated osteoclast (OCL) via cell to cell fusion (Gregg Wesolowski et al. Experimental Cell Research 219,679-686, 1995).
The prefusion osteoclast can be obtained via co-culture of both bone marrow cells and osteoblast, as prepared from Example 1. The mixture of both osteoblast (about 5×10^5 cells/plate) and bone marrow cells (about 1×10^7 cells/plate) were co-cultured in a 100 mm culture dish. Some differentiation factors, such as dexamethasone (10^−6M) and vitamin D3 (10^−9M), were added to the medium from the first day of culture. The medium was changed with a fresh medium containing differentiation factors every 2 days.
Since a great number of the prefusion osteoclasts having one or more nuclei in fusion process were formed during 4-day co-culture, the cells were separated and co-cultivation after 4 days. The medium was removed from the cells and with the addition of 0.2% collagenase solution (4 mL), the cells were incubated at 37° C. for 20 mins to separate the attachment cells. Since the majority of separated cells were osteoblasts, all osteoblasts were washed with PBS solution two or three times for their complete removal.
After the remaining prefusion osteoclasts were separated via reaction for 20 mins with the addition of echistatin containing 10% BSA, the cells were harvested by centrifuge.
The test substances diluted at each concentration were diluted at the desired concentration in α-MEM medium (addition of 10% FBS) to load them into a 96-well microplate in a dose of 100 uL per well. The osteoclastic monocytes, so separated from the preceding No. 1, were plated on a 96-well microplate in a dose of 5×10^3 cell/100 uL per well and cultured at 37° C. for 24 hrs, thus successfully resulting in the osteoclast fusion. In the case of specimen-free and positive controls, experiments were performed in the same manner as above.
The medium was removed from the cells and then the cells were washed once with PBS and fixed to a PBS solution containing 10% formalin for about 5 mins. The cells were again fixed to both ethanol and acetone (1/1) in a mixing solution for about 5 mins and dried off. The cells were further treated by TRAP staining solution for 15 mins and washed with water to observe the cells under the microscope. The TRAP-positive osteoclast counts, which were differentiated from monocyte to multinucleated cells (osteoclast having more than 10 nuclei) via fusion process, were measured.

[2] = test system: osteoclast activity (resorption pits); assay: Bone resorption pit formation assay on dentine slice (Example 5); format: cell-based, mice; conditions: for inhibition at 0.01 µM / inhibition at 0.1 µM / inhibition at 1 µM: Mus musculus, Osteoclast, read-out: Inhibitory activity (%); for inhibition at 0.01 µM / inhibition at 0.1 µM / inhibition at 1 µM / Inhibitory activity (%): dentine slice, 24 h
Protocol: Method for evaluating the effects of the compounds on osteoclast activity: Multinucleated osteoclasts were developed on collagen gel plates by co-culture system as described. On day 6-8 of the co-culture, multinucleated OCLs were detached from plates by 0.2% collagenase treatment (“crude OCLs”). Crude OCLs suspended in α-MEM containing 10% FBS were placed on a dentine slice (4 mm diameter) in a 96-well culture plate. […] At the end of the incubation, cells were removed by 1 M NH4OH treatment and resorption pits formed (in the slices stained with Mayer's hematoxylin). Resorption pits were enumerated with an image analyzer and compared to the control group.

[3] = test system: osteoclast differentiation; assay: Osteoclast differentiation, co-culture, TRAP(+)MNCs (Example 5); format: cell-based, mice; conditions: for inhibition at 0.01 µM / inhibition at 0.1 µM / inhibition at 1 µM: Mus musculus, Osteoclast, 144 h, read-out: % inhibitory action; for inhibition at 0.01 µM / inhibition at 0.1 µM / inhibition at 1 µM / % inhibitory action: day 6
Protocol: To investigate the effect of compounds on osteoclast differentiation, co-culture between bone marrow cells (2.5×10^5 cells/cm^2) and calvaria-derived osteoblastic cells (4×10^4 cells/cm^2) was conducted in the presence of 1.25(OH)2D3(10^−8 M) and dexamethasone (10^−7 M) with α-MEM containing 10% FBS (referred as “osteoclastic medium”). Bone marrow cells were isolated from the femora of 6-week-old ddY mice and primary osteoblastic cells were isolated from the calvariae of newborn ICR mice by sequential digestion with 0.2% collagenase. The medium was changed every two days with fresh osteoclastic medium. An index of osteoclast formation was determined by counting TRAP-positive multinucleated osteoclasts (TRAP(+)MNCs). On day 6, the cells were fixed with 10% formaldehyde and stained for TRAP. The number of TRAP(+) MNCs containing more than 6-7 nuclei was counted under a microscope (ZEISS Axiovert 25, Switzerland). The results are shown as the relative inhibitory activity (% inhibition) compared to the control group.

[4] = test system: Primary osteoblastic cells; assay: ALP activity in primary osteoblastic cells (Example 5); format: cell-based, ICR mice; conditions: for ALP activity (% of control) / ALP activity (Unit): 3 days
Protocol: Primary osteoblastic cells isolated from the calvariae of newborn ICR mice were grown to confluence in α-MEM containing 10% FBS. These cells were plated at a density of 1×10^5/ml in tissue culture dishes. After 24 h, cells were changed with a differentiation medium containing ascorbic acid (50 ug/ml) and β-glycerophosphate (10 mM) with or without the compounds and further cultured for 3 days. Cells were washed twice with PBS and harvested. For the measurement of ALP activity and total protein content, cells were extracted into 0.1% Triton X-100 in PBS containing 1 mM MgCl2 and centrifuged at 1.000×g for 5 minutes. Enzyme activity was determined in supernatants by colorimetric procedure using p-nitrophenyl phosphate (PNP) as a substrate at a wavelength of 405 nm and the protein content was determined by a Bio-Rad protein assay kit. The ALP unit was expressed as nmol PNP/ug protein/min.

[5] = test system: osteoclast fusion; assay: Osteoclast fusion assay with purified prefusion osteoclasts (Example 5); format: cell-based, mice; conditions: for inhibition at 0.08 µM / inhibition at 0.4 µM / inhibition at 2 µM / inhibition at 10 µM: read-out: Inhibitory action (%)
Protocol: The effect of the compounds on the fusion of osteoclasts was examined using purified prefusion osteoclasts (pOC, mononuclear and binuclear osteoclasts). Co-cultures of bone marrow cells (2×10^7 cells/dish) and newborn mice calvariae (1×10^6 cells/dish) were maintained in 100-mm-diameter dishes for 4 days with osteoclast differontiarion factor. Cultures were washed twice with PBS and treated with 0.1% collagenase/dispase at 37° C. for 20 minutes. Released cells, mostly osteoblasts, were removed with a pipet and the plates were washed three times with PBS. The remaining cells were incubated with 30 uM echistatin in α-MEM containing 1% BSA for 20 min at 37° C. These cells were collected, pelleted, and washed once with α-MEM containing 10% FBS. The cells released by this treatment were the subject of the fusion assay. More than 90% of the cells in the pOCs preparation used in the present study were positive for TRAP.
pOCs (15,000 cells/well) were plated on 96 well culture plates with or without various compounds. After culture for 18 hours, the cells were fixed and stained for TRAP.

[6] = Mus musculus, Osteoclast, 0.08 uM
[7] = Mus musculus, Osteoclast, 0.4 uM
[8] = Mus musculus, Osteoclast, 10 uM
[9] = Mus musculus, Osteoclast, 0.08 uM, 18 hours
[10] = Mus musculus, Osteoclast, 0.4 uM, 18 hours
[11] = Mus musculus, Osteoclast, 2 uM, 18 hours
[12] = Mus musculus, Osteoclast, 10 uM, 18 hours

Molecule	inhibition at 0.08 µM [1, 6]	inhibition at 0.4 µM [1, 7]	inhibition at 2 µM ([1]; Mus musculus, Osteoclast, 2 uM)	inhibition at 10 µM [1, 8]	inhibition at 0.01 µM ([2]; 0.01 uM)	inhibition at 0.1 µM ([2]; 0.1 uM)	inhibition at 1 µM ([2]; 1 uM)	inhibition at 0.01 µM ([3]; 0.01 uM)	inhibition at 0.1 µM ([3]; 0.1 uM)	inhibition at 1 µM ([3]; 1 uM)	ALP activity (% of control) ([4]; 0.01 uM)	ALP activity (Unit) ([4]; 0.01 uM)	ALP activity (% of control) ([4]; 0.1 uM)	ALP activity (Unit) ([4]; 0.1 uM)	inhibition at 0.08 µM [5, 9]	inhibition at 0.4 µM [5, 10]	inhibition at 2 µM [5, 11]	inhibition at 10 µM [5, 12]	also measured
Cc1nc(-c2ccc(OCCCCOc3ccc(C(=N)N)cc3)cc2)c(C(C)C)s1 [DW1351, 4-{4-[4-(5-isopropyl-2-methyl-1,3-thiazol-4-yl)phenoxy]butoxy}-benzamidine]	0%	0%	38%	74%	2.1%	26.7%	51.8%	23%	30.6%	61.5%	122.5 % of control	20.8 nmol PNP/ug protein/min	121.2 % of control	21.0 nmol PNP/ug protein/min	0%	0%	38%	74%	
COc1cc(C(=O)N(C(C)C)C(C)C)ccc1OCCCCOc1ccc2c(N)noc2c1 [HS1141, N,N-diisopropyl-4-[4-(3-aminobenzo[d]isooxazole-6-yloxy)butoxy]-3-methoxybenzamide]	2.1%	12.3%	15.7%	36.3%	8.2%	22.7%	52.7%	11.4%	36.4%	72.9%	117.3 % of control	19.9 nmol PNP/ug protein/min	120.9 % of control	21.0 nmol PNP/ug protein/min	2.1%	12.3%	15.7%	36.3%	
Cc1nc(-c2ccc(OCCCCOc3ccc(C(=N)NO)cc3)cc2)c(C(C)C)s1 [DW1349, N— hydroxy-4-{4-[4-(5-isopropyl-2-methyl-1,3-thiazol-4-yl)phenoxy]butoxy}-benzamidine]	0%	2.3%	4.5%	18%	19.3%	36.1%	64.7%	31.9%	46.8%	85.5%	113.2 % of control	19.0 nmol PNP/ug protein/min	101.6 % of control	17.2 nmol PNP/ug protein/min	0%	2.3%	4.5%	18%	
Cc1nc(-c2ccc(OCCCCCOc3ccc(C(=N)NO)cc3)cc2)c(C(C)C)s1 [DW1350, N-hydroxy-4-{5-[4-(5-isopropyl-2-methyl-1,3-thiazol-4-yl)phenoxy]pentoxy}-benzamidine]	4.5%	25.6%	80%	98%	45.2%	52.6%	72.6%	38.5%	62.7%	88.7%	141.9 % of control	24.4 nmol PNP/ug protein/min	153.7 % of control	26.7 nmol PNP/ug protein/min	4.5%	25.6%	80%	98%	IC50 ([1]; Mus musculus, Osteoclast): 810 nM; times better than DW1349 in inhibiting osteoclast activity ([2]; versus DW1349, Table 10): about 1.45 times; times more inhibition of osteoclast activity than DW1351 ([2]; versus DW1351, Table 10): two-fold better inhibitor; times more inhibition of osteoclast differentiation than DW1349 ([3]; versus DW1349, Table 8): 1.34 times; times stronger inhibition of osteoclast differentiation than DW1351 ([3]; versus DW1351, Table 8): about two times better; times better stimulator of osteoblast activity (ALP) than DW1349 ([4]; versus DW1349): 1.25 times; times greater stimulation of osteoblast activity (ALP) than DW1351 and DW1352 ([4]; versus DW1351 and DW1352): 1.15˜1.25 times; times stronger inhibition of osteoclast fusion than DW1349 ([5]; 2 uM, versus DW1349): 17.8 times; IC50 ([5]; Mus musculus, Osteoclast, 18 hours): 810 nM; times more inhibition of osteoclast fusion than DW1351 ([5]; versus DW1351): two fold better inhibitor
4-[5-[4-(aminoiminomethyl)phenoxy]pentoxy]-3-methoxy-N,N-bis(1-methylethyl)benzamide maleic acid [CGS-25019C]											121.3 % of control	20.6 nmol PNP/ug protein/min	115.3 % of control	19.7 nmol PNP/ug protein/min					Inhibitory action (%) ([1]; 0.08 uM): 10.14%; Inhibitory action (%) ([1]; 0.4 uM): 13.04%; Inhibitory action (%) ([1]; 2 uM): 13.77%; Inhibitory action (%) ([1]; 10 uM): 12.32%; Inhibitory activity (%) ([2]; 0.01 uM): 0(−24) %; Inhibitory activity (%) ([2]; 0.1 uM): 10.4%; Inhibitory activity (%) ([2]; 1 uM): 24.8%; % inhibitory action ([3]; 0.01 uM): 11.2%; % inhibitory action ([3]; 0.1 uM): 29.5%; % inhibitory action ([3]; 1 uM): 36.9%; Inhibitory action (%) ([5]; 0.08 uM, 18 hours): 10.14%; Inhibitory action (%) ([5]; 0.4 uM, 18 hours): 13.04%; Inhibitory action (%) ([5]; 2 uM, 18 hours): 13.77%; Inhibitory action (%) ([5]; 10 uM, 18 hours): 12.32%
